Measurements taken from PubChem BioAssay AID624258 (Broad Institute, 2012).
Activity calls are given as the source filed them. The rule behind the calls is not given here.

Experiment: Yeast SKN7 toxicity growth rescue counterscreen, Saccharomyces cerevisiae, plate reader, dose confirmatory (AID 624258);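 note: growth read after three days of incubation at 30 °C; 0% = median of neutral control wells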
Settings: S. cerevisiae SKN7-toxicity growth rescue, plate reader

Compound | growth rescue activity (at 19.5 µM (top of the series)) | further results
Cc1nc2ccc(C(C(F)(F)F)(C(F)(F)F)C(F)(F)F)cc2[nH]1 | -85.7% (inactive) | –
CC1(C)CC(=O)C(N=Nc2ccc3ncsc3c2)=C(O)C1 | 0.603% (inactive) | –
COc1cccc(C(C)=C2SC(=S)NC2=O)c1 | – | growth rescue activity (at 6.8 µM (top of the series)): -39% (inactive)
CC(C)CNC(=O)COC(=O)c1ccc([N+](=O)[O-])cc1Cl | 3.79% (inactive) | –
c1cnc2c(c1)ccc1cccnc12 | -64% (inactive) | –
O=c1c(/C=N/O)coc2ccc(Cl)cc12 | -4.03% (inactive) | –
C[C@]12CC[C@H](O)CC1=CCC1C2CC[C@@]2(C)C1CC[C@@H]2NC(=O)[C@@H](N)Cc1cnc[nH]1 (stereo partly drawn) | 26.3% (inactive) | –
COc1cnc(-c2ccccn2)nc1Sc1ccccc1 | -65.3% (inactive) | –
Cc1cccc(C)c1N1C(=O)C2ON(c3ccccc3)C(c3ccncc3)C2C1=O (stereo not drawn) | -56.4% (inactive) | –
FC(F)(F)c1cccc(N2CCN(C(=S)NC3CCCCC3)CC2)c1 | 64.1% (inactive) | –
O=C(NCc1ccncc1)c1ccccc1Nc1ccc(SC(F)F)cc1 | -49.8% (inactive) | –
Fc1ccc(N2CCN(c3ccc4c(C(F)(F)F)cc(C(F)(F)F)nc4n3)CC2)cc1 | 53.6% (inactive) | –
Oc1ccccc1-c1cc(-c2ccc3c(c2)OCCO3)n[nH]1 | 2.6% (inactive) | –
CCC1=NN(C(=O)c2cccc(Br)c2)C(O)(c2ccc(Br)cc2)C1 (stereo not drawn) | -2.16% (inactive) | –
CCOC(=O)c1ccc(NC(=S)N(Cc2cccnc2)Cc2ccco2)cc1 | -37.1% (inactive) | –
O=[N+]([O-])c1ccc2c(OCc3nnc(-c4ccccc4Br)o3)ncnc2c1 | 7.4% (inactive) | –
O=C1C(Nc2ccccc2)=C/C(=N/S(=O)(=O)c2cccs2)c2ccccc21 | -8.54% (inactive) | –
CN(C)c1ccc(C=c2c3ccccc3n3c2cc(-c2ccc(Cl)cc2)[n+]3C)cc1 | -52.4% (inactive) | –
CCc1sc(C(=O)Nc2nc(-c3ccccn3)cs2)cc1C | -81% (inactive) | –
O/N=C/c1ccccc1OCc1ccc(Cl)cc1 | 10.8% (inactive) | –
Cc1ccc2c(c1C)-c1c(ccc(C)c1C)C(=O)C2=O | – | growth rescue activity (at 6.8 µM (top of the series)): -4.89% (inactive)
Oc1c(C(Nc2ccccn2)c2ccccn2)ccc2cccnc12 (stereo not drawn) | -61.4% (inactive) | –
CC1(C)C=Cc2c(ccc3c2OC[C@@H](c2ccc(O)cc2O)C3)O1 | -92.6% (inactive) | –
COC(=O)c1cccc2c1NC(=O)C2=O | -14.3% (inactive) | –

Compound | growth rescue activity (at 19.5 µM (top of the series)) | further results
N#Cc1ccc(Sc2ccccn2)c([N+](=O)[O-])c1 | 7.91% (inactive) | –
C=CCN(CC=C)C(=S)NC(=O)c1ccc(C)c(Br)c1 | -13.6% (inactive) | –
O=P(Nc1cccnc1)(Oc1ccccc1Cl)Oc1ccccc1Cl | -59% (inactive) | –
O=C(NCCCNc1ccc(C(F)(F)F)cc1[N+](=O)[O-])c1ccc(Cl)cc1 | -14.8% (inactive) | –
COc1cc2cnc(-c3ccccc3)c(C(=O)c3ccc(F)cc3)c2cc1OC | 2.41% (inactive) | –
Cc1cccc(NC(=S)NC(C)CCc2ccccc2)c1 (stereo not drawn) | -40.4% (inactive) | –
O=C1Nc2c(Br)cccc2C1=O | -9.27% (inactive) | –
Cc1ccc(S(=O)(=O)Nc2ccc(O)c3cccnc23)cc1 | -0.63% (inactive) | –
COc1cc2c(c(OC)c1OC)-c1ccc(O)c(=O)cc1[C@@H](NC(C)=O)CC2 | -29.6% (inactive) | –
CCOC(=O)C1CCCN(C(=O)c2cc(-c3ccc(C)cc3)nc3ccccc23)C1 (stereo not drawn) | 25.9% (inactive) | –
CN(Cc1cccc(F)c1)C(=O)c1ccc(S(=O)(=O)N2CCCCCC2)cc1 | -8.45% (inactive) | –
COc1ccc(O)c(C(=O)CC(=O)c2ccc(F)cc2)c1 | -74.9% (inactive) | –
Clc1ccc(CSC(Cn2ccnc2)c2ccc(Cl)cc2Cl)cc1 (stereo not drawn) | -73% (inactive) | –
O=[N+]([O-])c1ccc(Sc2ncccn2)c([N+](=O)[O-])c1 | -6.92% (inactive) | –
CCCS(=O)(=O)c1c(S(=O)(=O)CCC)c2c(C)cccn2c1C(=O)N/N=C/c1cc(O)cc(O)c1 | 22.5% (inactive) | –
Oc1c(C(Nc2ccccn2)c2cccnc2)cc(Cl)c2cccnc12 (stereo not drawn) | -70.7% (inactive) | –
CN(C)CCCNc1cc(C(C)(C)C)nc2c(-c3ccc(Cl)cc3)cnn12 | – | growth rescue activity (at 6.8 µM (top of the series)): 14.1% (inactive)
O=C(Nc1nc(-c2ccccn2)cs1)c1ccc(Br)s1 | -44.2% (inactive) | –
O=C(NC(=S)N(CCc1ccccc1)CCc1ccccc1)c1ccco1 | -9.38% (inactive) | –
CCCCCCCCCCOC(=O)Cn1c(COc2ccccc2OC)[n+](C)c2ccccc21 | -82.3% (inactive) | –
O=C(Nc1ccc(Br)c(C(F)(F)F)c1)c1ccccc1 | -78.2% (inactive) | –
CCc1ccc(C(C)NC(=S)NC2CCCCC2)cc1 (stereo not drawn) | – | growth rescue activity (at 2.1 µM (top of the series)): -19.4% (inactive)
N#Cc1cc2c(nc1SCc1ccccc1)CCCC2=O | -24.7% (inactive) | –
Cc1cccc(N2CCN(C(=O)C3(S(=O)(=O)c4ccc(Cl)cc4)CC3)CC2)c1C | -38.2% (inactive) | –

Compound | growth rescue activity (at 19.5 µM (top of the series)) | further results
Cc1[nH]n(C(N)=S)c(=O)c1N=Nc1ccc2ccccc2c1 | -41.4% (inactive) | –
Clc1ccccc1C(c1ccccc1)(c1ccccc1)n1ccnc1 | -48.3% (inactive) | –
O=Cc1ccc(O)c2ncccc12 | -72% (inactive) | –
N#Cc1c(N)nc(SCc2ccccc2)c(C#N)c1-c1ccco1 | -27.7% (inactive) | –
CCOC(=O)CN1C(=O)C2Cc3ccccc3CN2C1=S (stereo not drawn) | 41.4% (inactive) | –
CCC(C)Sc1cccc(-c2nc3ccccn3c2NCc2ccccc2)c1 (stereo not drawn) | -90.6% (inactive) | –
O=C1C(=O)c2ccccc2C(O)=C1CC=C(Cl)Cl | -94.4% (inactive) | –
COc1ccc(/C=N/Nc2cc(C)nc(-n3nc(C)cc3C)n2)cc1 | -51.9% (inactive) | –
O=C(C1COc2ccccc2O1)N1CCN(c2ccccc2Cl)CC1 (stereo not drawn) | -13% (inactive) | –
CC(=O)NC(c1cccc([N+](=O)[O-])c1)c1ccc2cccnc2c1O (stereo not drawn) | -39.9% (inactive) | –
c1ccc(-c2ccc(SCc3cccnc3)nn2)nc1 | -9.85% (inactive) | –
O=C(CN1CCN(c2ncc(C(F)(F)F)cc2Cl)CC1)NCCNc1ncc(C(F)(F)F)cc1Cl | -35.8% (inactive) | –
CCCCCC1CCC(c2ccc(/C(N)=N/O)cc2)CC1 (stereo not drawn) | -61.8% (inactive) | –
C[C@]12CC[C@H](O)CC1=CCC1C2CC[C@@]2(C)C1CC[C@@H]2NC(=O)[C@@H](N)Cc1ccccc1 (stereo partly drawn) | 15.7% (inactive) | –
CCn1c2ccc(C)cc2c2nc3cc(C(=O)O)ccc3nc21 | 18.7% (inactive) | –
COc1ccc(N(C(=O)c2ccncc2)S(=O)(=O)c2ccccc2)cc1 | -61.4% (inactive) | –
O=C(NCCC(=O)N1CCN(c2ccccc2O)CC1)c1ccc(Br)cc1 | -9.2% (inactive) | –
O=C(c1ccc(-c2ccccc2)c(F)c1)C1CCCN(C(=O)c2cncs2)C1 (stereo not drawn) | -45.2% (inactive) | –
O=S1(=O)CCN2C(=N1)Sc1c2ccc2c1CCCC2 | 5.5% (inactive) | –
O=C(Nc1ccc(Cl)cc1C(=O)Nc1ccc(Br)cn1)c1ccco1 | -90.7% (inactive) | –
COc1cc(NS(=O)(=O)c2ccc(C)cc2)c2ncccc2c1 | -51.9% (inactive) | –
O=C(CC1(O)C(=O)Nc2cc(Cl)cc(Cl)c21)c1ccncc1 (stereo not drawn) | -23.3% (inactive) | –
CN(C)CCCNC(=O)c1ccc(-c2nc(-c3ccc(Cl)cc3)cs2)cc1 | 0.817% (inactive) | –
CCN(CC)C(=O)CSc1ncnc2sc(-c3ccccc3)cc12 | -25.1% (inactive) | –

Compound | growth rescue activity (at 19.5 µM (top of the series)) | further results
CC1=C(C)C(=O)C(CCCCC#CCCCC#CCO)=C(C)C1=O | -34.8% (inactive) | –
O=[N+]([O-])c1ccc(S(=O)(=O)c2ccccc2)nc1 | 10.3% (inactive) | –
Cc1cccc(N2CCN(C(=O)C3COc4ccccc4O3)CC2)c1C (stereo not drawn) | -49.4% (inactive) | –
CCOc1cc([N+](=O)[O-])cc(/C=N/NC(=O)c2c(-c3ccccc3)noc2C)c1O | 0.098% (inactive) | –
O=C(c1ccccc1)N1C(=O)C(c2ccccc2)Oc2ccccc21 (stereo not drawn) | -57.4% (inactive) | –
Cc1ccc(-c2c3c(nc4sc(C(N)=O)c(N)c24)CCCC3)o1 | -35.3% (inactive) | –
O=C1C=C(NCCc2cc(Br)c(O)c(Br)c2)C(=O)c2ncccc21 | 30.5% (inactive) | –
CCC(=O)NC(c1ccco1)c1cc(Cl)c2cccnc2c1O (stereo not drawn) | -49.4% (inactive) | –
CCOC(=O)N1C(=O)C2(CCCCC2)N(c2ccccc2Cl)C1=S | -49.5% (inactive) | –
CCCCCCCn1c(=O)c(C(=O)OC)c(N)c2ccccc21 | -87.1% (inactive) | –
Cc1ccc(S(=O)(=O)N(C(=O)c2ccncc2)c2ccc(OC(=O)c3ccncc3)cc2)cc1 | -57.3% (inactive) | –
Oc1ccc(/C=N/Nc2ccc(C(F)(F)F)cn2)c(O)c1 | -73.7% (inactive) | –
COc1cccc(Nc2nc(-c3cccs3)nc3ccccc23)c1 | -45.7% (inactive) | –
CN1CCN(C(c2ccccn2)c2cc(Cl)c3cccnc3c2O)CC1 (stereo not drawn) | -64.1% (inactive) | –
O=C(NOC(=O)c1ccccc1)c1ccccc1 | -77.5% (inactive) | –
Cn1cc(SCC(=O)Nc2nc3ccccc3s2)c2ccccc21 | -62.4% (inactive) | –
OCCN(CCO)c1cc2c3ccccc3ccc2c2ccccc12 | 9.38% (inactive) | –
COc1cccc(C(=O)Nc2sc(C(C)C)cc2C(N)=O)c1OC | 93.8% (inactive) | –
C=CCc1ccc(O)c(-c2ccc(O)c(CC=C)c2)c1 | -65.1% (inactive) | –
C[C@@]12CCC3[C@@](CCC4[C@@]3(C)CCC[C@@]4(C)C(=O)NCc3ccccc3)(CC1=O)C2 (stereo partly drawn) | -51.4% (inactive) | –
COc1cc([N+](=O)[O-])cc(/C=N/NC(=O)c2cncc(Br)c2)c1O | -13.3% (inactive) | –
